Source: article PMC5845353, “The selective cathepsin K inhibitor MIV-711 attenuates joint pathology in experimental animal models of osteoarthritis” (Journal of Translational Medicine, 2018)

Experiments:
[1] = system: rabbits subjected to anterior cruciate ligament transection (ACLT); experiment: Rabbit ACLT study, contrast-enhanced µCT of articular cartilage; type: in vivo
From the text: The animals were acquired following review and approval by the Institutional Animal Care and Use Committee (IACUC) at Numira (Salt Lake City, UT). The protocol was also reviewed and approved by the IACUC at Ibex Preclinical Research Inc. (Logan, UT). Male, New Zealand White rabbits (n = 32) were purchased from the Western Oregon Rabbit Co. (Philomath, OR). The animals were approximately 9 months old, weighed 3.7–4.5 kg at the start of the experiment and were randomized into four treatment groups based on body weight.
Pre-operative butorphanol (0.5–1.0 mg/kg, i.m.) for analgesia and glycopyrrolate (~ 0.1 mg/kg i.m.) were administered up to 15 min prior to induction. Anesthesia was induced by a mixture of ketamine (20–40 mg/kg, i.m.) and xylazine (5–10 mg/kg, i.m.), followed by placement of an endotracheal tube. General anesthesia was maintained with isoflurane. Perioperative cefazolin (40 mg/kg, i.v.) was administered, and […] (0.2 mg/kg, i.v.) was administered to reverse the effects of xylazine after endotracheal intubation was complete. A fentanyl patch (25 µg/h) was placed on a clipped area of the skin to provide post-operative analgesia. An incision of 1.5–2.5 cm was made in the skin over the medial side of the right knee under aseptic conditions. The patella was dislocated laterally and the knee placed in full flexion. The anterior cruciate ligament (ACL) was visualized and transected with an appropriate blade. In sham animals, the ACL was visualized but not transected. The joint was irrigated with sterile saline and closed. The muscle and skin were closed with suture and/or surgical glue. Butorphanol (0.5–1 mg/kg, i.m.) was administered after extubation to provide supplemental analgesia. The animals were then individually housed in stainless steel or plastic cages.
Starting 1 week after sham operation or ACLT, animals were dosed daily for 7 weeks by oral gavage with either MIV-711 (synthesized by Medivir and given as a suspension in 1% Methocel A4C in water) or vehicle (1% Methocel A4C in water) at a dose volume of 4 mL/kg. The four treatment groups (n = 7 in each group) were: (1) sham + vehicle; (2) ACLT + vehicle; (3) ACLT + MIV-711, 30 µmol/kg (low dose) and (4) ACLT + MIV-711, 100 µmol/kg (high dose).
Femora and tibias from all animals were subjected to µCT scanning without and with contrast reagent, to visualize bone and cartilage, respectively. Samples were scanned on a high-resolution, volumetric µCT scanner (μCT40, ScanCo Medical, Zurich, CH). The image data was acquired with the following parameters: 36 μm isotropic voxel resolution at 300 ms exposure time, 2000 views and 1 frame per view. Each sample was scanned twice, once for acquiring bone data and once for soft tissue data. After the bone scans, the knees were stained using hexabrix for contrast-enhanced imaging of the cartilage. The µCT-generated DICOM files were used to analyze the samples and to create volume renderings of the regions of interest (ROI). The raw data files were converted into a file format compatible with the segmentation software VHLab (Numira). VHLab was used for segmenting out the regions of interest (osteophyte, cartilage, and subchondral bone) for the femur and tibia of each sample. A region spanning 9 mm of the articulating surface of the femur and 6.5 mm of the tibia was selected for segmenting out the cartilage and subchondral bone in the anterior–posterior direction. After the segmentation process, the voxel count associated with each of the regions of interest was calculated using VHLab. The voxel count was then multiplied by the cubic voxel resolution to obtain volume measurements for the different ROI. Cartilage thickness was calculated using SCIRun (Scientific Computing and Imaging Institute, University of Utah). The distance from the bone to the outer surface of the articulating cartilage was calculated. An image was generated that translates the distances into a color map for viewing the thickness along the length of the cartilage. […]

[2] = system: dogs subjected to partial medial meniscectomy; experiment: Dog partial medial meniscectomy study, osteophyte measurement and grades; type: in vivo
Experimental: Osteophytes for each compartment were measured (basal endochondral ossification to surface of cartilage cap) and severity grades assigned according to the following: […]

C#C[C@@H]1CN(C(=O)[C@H](CC(C)C)NC(=O)c2ccc(-c3nc(N4CCN(C)CC4)sc3F)cc2)[C@@H]2C(=O)CO[C@H]12 [MIV-711]
Cartilage Thickness, Lateral ([1]; Femur, high dose 100 µmol/kg): 251 ± 12 µm | Cartilage Thickness, Medial ([1]; Femur, high dose 100 µmol/kg): 306 ± 12 µm | Cartilage Thickness, Total ([1]; Femur, high dose 100 µmol/kg): 278 ± 11 µm | Cartilage Volume, Lateral ([1]; Femur, high dose 100 µmol/kg): 23.0 ± 1.1 mm^3 | Cartilage Volume, Medial ([1]; Femur, high dose 100 µmol/kg): 27.2 ± 1.6 mm^3 | Cartilage Volume, Total ([1]; Femur, high dose 100 µmol/kg): 50.2 ± 2.2 mm^3 | Cartilage Thickness, Lateral ([1]; Femur, low dose 30 µmol/kg): 257 ± 13 µm | Cartilage Thickness, Medial ([1]; Femur, low dose 30 µmol/kg): 310 ± 18 µm | Cartilage Thickness, Total ([1]; Femur, low dose 30 µmol/kg): 283 ± 15 µm | Cartilage Volume, Lateral ([1]; Femur, low dose 30 µmol/kg): 23.1 ± 1.1 mm^3 | Cartilage Volume, Medial ([1]; Femur, low dose 30 µmol/kg): 27.5 ± 2.6 mm^3 | Cartilage Volume, Total ([1]; Femur, low dose 30 µmol/kg): 50.6 ± 3.5 mm^3 | Cartilage Thickness, Lateral ([1]; Tibia, high dose 100 µmol/kg): 369 ± 24 µm | Cartilage Thickness, Medial ([1]; Tibia, high dose 100 µmol/kg): 539 ± 25 µm | Cartilage Thickness, Total ([1]; Tibia, high dose 100 µmol/kg): 445 ± 22 µm | Cartilage Volume, Lateral ([1]; Tibia, high dose 100 µmol/kg): 21.6 ± 2.0 mm^3 | Cartilage Volume, Medial ([1]; Tibia, high dose 100 µmol/kg): 25.3 ± 1.2 mm^3 | Cartilage Volume, Total ([1]; Tibia, high dose 100 µmol/kg): 46.9 ± 3.1 mm^3 | Cartilage Thickness, Lateral ([1]; Tibia, low dose 30 µmol/kg): 349 ± 18 µm | Cartilage Thickness, Medial ([1]; Tibia, low dose 30 µmol/kg): 533 ± 26 µm | Cartilage Thickness, Total ([1]; Tibia, low dose 30 µmol/kg): 432 ± 20 µm | Cartilage Volume, Lateral ([1]; Tibia, low dose 30 µmol/kg): 19.6 ± 1.3 mm^3 | Cartilage Volume, Medial ([1]; Tibia, low dose 30 µmol/kg): 24.9 ± 1.5 mm^3 | Cartilage Volume, Total ([1]; Tibia, low dose 30 µmol/kg): 44.5 ± 2.6 mm^3 | Osteophyte Score ([2]; MIV-711 group mean): 0.00 | Osteophyte Measure ([2]; individual dogs of MIV-711 group): 0 µm | Osteophyte Score ([2]; individual dogs of MIV-711 group, mean of 3 sections): 0.00
